Activity calls are given as the source filed them. The rule behind the calls is not given here.
Assays:
[1] = target: T1, RAC-alpha serine/threonine-protein kinase (Homo sapiens, UniProt P31749); experiment: Inhibition of AKT1 (unknown origin) using biotin-labelled STK as substrate measured after 45 mins by HTRF method
[2] = target: T1, RAC-alpha serine/threonine-protein kinase; experiment: Inhibition of AKT1 (unknown origin) at 0.1 uM using biotin-labelled STK as substrate measured after 45 mins by HTRF method relative to control
[3] = target: MAP kinase-interacting serine/threonine-protein kinase 1 (Homo sapiens) (UniProt Q9BUB5); experiment: Inhibition of MNK1 (unknown origin) at 1 uM after 40 mins by scintillation counting method relative to control
[4] = target: Ribosomal protein S6 kinase alpha-1 (Homo sapiens) (UniProt Q15418); experiment: Inhibition of RSK1 (unknown origin) at 1 uM after 40 mins by scintillation counting method relative to control
[5] = target: T2, Serine/threonine-protein kinase Chk1 (Homo sapiens) (UniProt O14757); experiment: Inhibition of CHK1 (unknown origin) at 1 uM after 40 mins by scintillation counting method relative to control
T2 sequence (whole entry): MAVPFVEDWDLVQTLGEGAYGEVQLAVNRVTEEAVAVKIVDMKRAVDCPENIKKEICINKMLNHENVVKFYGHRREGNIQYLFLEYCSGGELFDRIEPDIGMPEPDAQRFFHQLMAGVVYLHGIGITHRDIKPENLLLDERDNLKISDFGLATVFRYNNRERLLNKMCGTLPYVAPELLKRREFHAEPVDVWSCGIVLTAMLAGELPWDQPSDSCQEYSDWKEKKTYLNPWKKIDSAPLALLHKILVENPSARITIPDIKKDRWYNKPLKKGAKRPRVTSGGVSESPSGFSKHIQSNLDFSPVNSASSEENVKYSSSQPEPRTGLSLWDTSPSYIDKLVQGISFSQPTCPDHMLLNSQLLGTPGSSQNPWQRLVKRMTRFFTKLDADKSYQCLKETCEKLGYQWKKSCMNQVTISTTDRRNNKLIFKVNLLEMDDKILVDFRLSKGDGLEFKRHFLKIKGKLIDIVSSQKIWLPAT

[6] = target: RAC-gamma serine/threonine-protein kinase (Homo sapiens) (UniProt Q9Y243); experiment: Inhibition of AKT3 (unknown origin) at 10 nM after 40 mins by scintillation counting method relative to control
[7] = target: T1, RAC-alpha serine/threonine-protein kinase; experiment: Inhibition of AKT phosphorylation in human PC3 cells at 1 to 10 uM after 4 hrs by Western blot analysis; format: cell-based
PC-3 [8] = experiment: Induction of apoptosis in human PC3 cells assessed as early apoptotic cells at 1 uM after 48 hrs by Annexin V-FITC/propidium iodide staining based flow cytometry (reference value: 1.05%); format: functional
PC-3 [9] = experiment: Induction of apoptosis in human PC3 cells assessed as late apoptotic cells at 1 uM after 48 hrs by Annexin V-FITC/propidium iodide staining based flow cytometry (reference value: 0.27%); format: functional
PC-3 [10] = experiment: Induction of apoptosis in human PC3 cells assessed as live cells at 5 uM after 48 hrs by Annexin V-FITC/propidium iodide staining based flow cytometry (reference value: 97.19%); format: functional
PC-3 [11] = experiment: Induction of apoptosis in human PC3 cells assessed as late apoptotic cells at 5 uM after 48 hrs by Annexin V-FITC/propidium iodide staining based flow cytometry (reference value: 0.27%); format: functional
PC-3 [12] = experiment: Induction of apoptosis in human PC3 cells assessed as necrotic cells at 5 uM after 48 hrs by Annexin V-FITC/propidium iodide staining based flow cytometry (reference value: 1.48%); format: functional
PC-3 [13] = experiment: Induction of apoptosis in human PC3 cells assessed as live cells at 10 uM after 48 hrs by Annexin V-FITC/propidium iodide staining based flow cytometry (reference value: 97.19%); format: functional
PC-3 [14] = experiment: Induction of apoptosis in human PC3 cells assessed as late apoptotic cells at 10 uM after 48 hrs by Annexin V-FITC/propidium iodide staining based flow cytometry (reference value: 0.27%); format: functional
in vitro = experiment: in vitro; design: dose or concentration left out as unconfirmed; conditions: human, liver microsomes
Description: Stability in human liver microsomes assessed as parent compound remaining at 10 mM preincubated for 10 mins followed by NADPH addition and measured after 60 mins by LC-MS analysis

T1 sequence (P31749 whole entry): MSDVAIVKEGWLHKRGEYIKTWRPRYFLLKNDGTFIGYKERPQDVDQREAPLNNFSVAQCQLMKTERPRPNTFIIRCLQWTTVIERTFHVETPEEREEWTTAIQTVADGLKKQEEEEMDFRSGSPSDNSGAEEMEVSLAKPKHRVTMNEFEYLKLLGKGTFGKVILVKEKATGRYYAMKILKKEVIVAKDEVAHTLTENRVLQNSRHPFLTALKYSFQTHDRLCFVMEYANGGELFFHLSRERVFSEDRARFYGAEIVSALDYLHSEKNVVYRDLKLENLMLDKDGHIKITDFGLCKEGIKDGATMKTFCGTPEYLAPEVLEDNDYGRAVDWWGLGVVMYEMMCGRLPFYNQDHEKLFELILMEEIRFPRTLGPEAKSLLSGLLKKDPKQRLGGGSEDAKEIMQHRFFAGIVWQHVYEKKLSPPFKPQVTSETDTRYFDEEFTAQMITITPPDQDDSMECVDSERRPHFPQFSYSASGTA
MAP kinase-interacting serine/threonine-protein kinase 1 (Homo sapiens), sequence (Q9BUB5 whole entry, looked up): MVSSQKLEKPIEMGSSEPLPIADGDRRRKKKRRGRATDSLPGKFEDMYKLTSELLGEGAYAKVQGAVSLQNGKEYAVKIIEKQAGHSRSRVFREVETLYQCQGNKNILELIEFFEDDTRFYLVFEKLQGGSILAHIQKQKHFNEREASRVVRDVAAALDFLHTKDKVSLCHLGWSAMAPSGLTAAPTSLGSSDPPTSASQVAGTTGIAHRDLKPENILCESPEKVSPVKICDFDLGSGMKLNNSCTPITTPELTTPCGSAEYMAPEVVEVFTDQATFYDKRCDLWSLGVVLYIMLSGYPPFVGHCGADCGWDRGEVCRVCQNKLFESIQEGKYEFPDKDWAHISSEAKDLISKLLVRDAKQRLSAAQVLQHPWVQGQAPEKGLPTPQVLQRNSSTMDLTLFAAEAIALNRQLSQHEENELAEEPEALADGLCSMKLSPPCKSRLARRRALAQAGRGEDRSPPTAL
Ribosomal protein S6 kinase alpha-1 (Homo sapiens), sequence (Q15418 whole entry): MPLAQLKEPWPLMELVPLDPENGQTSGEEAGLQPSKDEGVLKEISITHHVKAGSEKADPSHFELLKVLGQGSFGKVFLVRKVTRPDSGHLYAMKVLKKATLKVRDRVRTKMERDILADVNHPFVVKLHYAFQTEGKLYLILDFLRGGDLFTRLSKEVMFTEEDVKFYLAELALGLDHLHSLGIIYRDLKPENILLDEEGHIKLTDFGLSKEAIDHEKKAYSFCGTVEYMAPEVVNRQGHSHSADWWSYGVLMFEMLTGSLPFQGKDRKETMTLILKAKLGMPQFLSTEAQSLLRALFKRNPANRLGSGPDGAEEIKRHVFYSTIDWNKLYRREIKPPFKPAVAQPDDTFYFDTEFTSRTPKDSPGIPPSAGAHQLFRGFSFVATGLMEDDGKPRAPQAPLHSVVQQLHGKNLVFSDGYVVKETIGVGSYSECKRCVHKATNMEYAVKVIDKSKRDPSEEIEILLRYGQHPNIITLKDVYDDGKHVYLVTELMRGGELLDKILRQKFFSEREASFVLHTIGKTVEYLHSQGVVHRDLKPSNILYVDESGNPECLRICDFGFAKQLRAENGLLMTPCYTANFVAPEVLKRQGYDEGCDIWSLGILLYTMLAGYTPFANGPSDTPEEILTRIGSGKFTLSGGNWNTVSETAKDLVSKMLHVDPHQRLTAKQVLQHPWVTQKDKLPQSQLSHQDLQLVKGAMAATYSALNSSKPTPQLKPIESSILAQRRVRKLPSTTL
RAC-gamma serine/threonine-protein kinase (Homo sapiens), sequence (Q9Y243 whole entry): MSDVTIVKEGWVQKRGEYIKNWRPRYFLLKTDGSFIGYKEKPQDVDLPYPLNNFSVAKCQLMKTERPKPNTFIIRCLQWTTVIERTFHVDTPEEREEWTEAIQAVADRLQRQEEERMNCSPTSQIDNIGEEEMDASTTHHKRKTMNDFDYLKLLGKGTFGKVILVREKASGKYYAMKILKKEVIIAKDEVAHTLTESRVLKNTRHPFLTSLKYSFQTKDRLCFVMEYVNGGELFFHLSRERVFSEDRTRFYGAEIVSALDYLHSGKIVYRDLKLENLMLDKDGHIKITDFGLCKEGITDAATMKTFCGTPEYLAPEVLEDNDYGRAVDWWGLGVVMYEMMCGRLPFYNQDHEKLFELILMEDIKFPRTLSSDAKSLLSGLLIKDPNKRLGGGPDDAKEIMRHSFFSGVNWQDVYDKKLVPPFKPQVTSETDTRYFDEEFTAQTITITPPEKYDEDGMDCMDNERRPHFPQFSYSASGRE

Work on `O=C(N1CCN(c2ncnc3[nH]nc(Cl)c23)CC1)C1(c2ccc(Cl)c(Cl)c2)CCNCC1` yielded an IC50 [1] of 24.3 nM, an inhibition [2] of 83.7% and an inhibition [3] of 47%. The inhibition [4] was 83%, the inhibition [5] was “inactive” and the inhibition [6] was 93%. The inhibition [7] was “Active”, the Activity (PC-3 [8]) was 2.7% and the Activity (PC-3 [9]) was 4.82%. It also gave an Activity (PC-3 [10]) of 88.11%, an Activity (PC-3 [11]) of 6.2% and an Activity (PC-3 [12]) of 1.76%. The Activity (PC-3 [13]) was 68.92%, the Activity (PC-3 [14]) was 16.6% and the remaining at 1 h (in vitro) was 81.8%.
